Results from patent publication US11254686B1 (Corvus Pharmaceuticals, Inc., priority 2017, dated 2022).
Read-outs that look alike come from different tables or passages of the source.

Columns and labels:
adenosine A1 receptor [1] = biological target: T1, adenosine A1 receptor (Homo sapiens (Human), UniProt P30542); assay: A1 cAMP IC50 assay (Table 1); type: biochemical
[2] = Hepatocyte (Hep) intrinsic clearance, rat; type: in vitro ADME; details: hepatocytes
[3] = Hepatocyte (Hep) intrinsic clearance, human; type: in vitro ADME; details: hepatocytes
adenosine A2A receptor = adenosine A2A receptor (Homo sapiens (Human), UniProt P29274); assay: Adenosine receptor activity assay (Table 1), A2A activity; type: biochemical; details: read-out: Ave A2A cAMP IC50
Chain of adenosine A2A receptor (P29274 whole entry): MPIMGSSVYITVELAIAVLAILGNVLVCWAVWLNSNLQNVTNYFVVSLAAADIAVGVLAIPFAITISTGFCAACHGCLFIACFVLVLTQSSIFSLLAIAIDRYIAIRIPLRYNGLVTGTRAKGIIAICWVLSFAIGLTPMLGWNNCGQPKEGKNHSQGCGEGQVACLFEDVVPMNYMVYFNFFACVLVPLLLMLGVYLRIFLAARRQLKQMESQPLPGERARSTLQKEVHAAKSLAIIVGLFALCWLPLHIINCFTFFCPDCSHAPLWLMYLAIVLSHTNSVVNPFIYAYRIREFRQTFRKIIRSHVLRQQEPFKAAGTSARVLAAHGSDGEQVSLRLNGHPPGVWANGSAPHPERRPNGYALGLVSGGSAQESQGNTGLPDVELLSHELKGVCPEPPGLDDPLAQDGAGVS

adenosine A3 receptor [4] = biological target: T2, adenosine A3 receptor (Homo sapiens (Human), UniProt P0DMS8); assay: A3 cAMP IC50 assay (Table 1); type: biochemical
T2 sequence (P0DMS8 whole entry): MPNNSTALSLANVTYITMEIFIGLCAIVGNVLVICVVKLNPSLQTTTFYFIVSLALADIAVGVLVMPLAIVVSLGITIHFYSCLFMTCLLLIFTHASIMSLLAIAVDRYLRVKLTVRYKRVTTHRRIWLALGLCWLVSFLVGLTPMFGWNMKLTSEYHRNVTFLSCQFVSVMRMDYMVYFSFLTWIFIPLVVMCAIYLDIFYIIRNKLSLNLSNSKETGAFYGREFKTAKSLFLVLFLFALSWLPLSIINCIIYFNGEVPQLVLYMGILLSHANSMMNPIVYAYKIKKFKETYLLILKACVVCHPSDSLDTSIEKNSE

adenosine A2B receptor = adenosine A2B receptor (Homo sapiens (Human), UniProt P29275); assay: Adenosine receptor activity assay (Table 1), A2B activity; type: biochemical; details: for IC50: read-out: Ave A2B cAMP IC50
Chain of adenosine A2B receptor (P29275 whole entry): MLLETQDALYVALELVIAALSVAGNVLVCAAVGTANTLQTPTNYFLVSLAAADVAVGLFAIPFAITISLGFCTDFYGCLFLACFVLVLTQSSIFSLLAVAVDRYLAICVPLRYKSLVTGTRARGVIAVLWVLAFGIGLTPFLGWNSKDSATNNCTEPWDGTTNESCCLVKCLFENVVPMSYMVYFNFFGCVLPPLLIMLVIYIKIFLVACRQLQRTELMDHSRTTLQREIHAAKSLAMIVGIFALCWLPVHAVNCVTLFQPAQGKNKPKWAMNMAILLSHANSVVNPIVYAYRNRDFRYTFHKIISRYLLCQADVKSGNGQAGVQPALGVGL

adenosine A1 receptor [5] = biological target: T1, adenosine A1 receptor; assay: Adenosine receptor activity assay (Table 1), A1 cAMP; type: biochemical
adenosine A3 receptor [6] = biological target: T2, adenosine A3 receptor; assay: Adenosine receptor activity assay (Table 1), A3 cAMP; type: biochemical
[7] = A2A activity to A2B activity (A2A/A2B)

T1 sequence (P30542 whole entry): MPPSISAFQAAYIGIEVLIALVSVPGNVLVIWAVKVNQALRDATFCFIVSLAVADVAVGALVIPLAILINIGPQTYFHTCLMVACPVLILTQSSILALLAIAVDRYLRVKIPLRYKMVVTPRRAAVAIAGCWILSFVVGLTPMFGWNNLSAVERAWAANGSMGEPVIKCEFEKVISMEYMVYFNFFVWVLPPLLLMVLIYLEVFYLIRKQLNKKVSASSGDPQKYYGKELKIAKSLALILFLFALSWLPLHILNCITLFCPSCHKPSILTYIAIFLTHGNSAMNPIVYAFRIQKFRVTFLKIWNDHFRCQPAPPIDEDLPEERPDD

Compound	IC50 (adenosine A1 receptor [1]) [nM]	hepatocyte CLint [2] [µL/min/1e6 cells]	hepatocyte CLint [3] [µL/min/1e6 cells]	IC50 (adenosine A2A receptor) [nM]	IC50 (adenosine A3 receptor [4]) [nM]	Ratio (adenosine A2B receptor; [7])	IC50 (adenosine A2B receptor) [nM]	IC50 (adenosine A1 receptor [5]) [nM]	IC50 (adenosine A3 receptor [6]) [nM]	IC50 (adenosine A2A receptor; cAMP) [nM]	Ratio (adenosine A2B receptor; A2A activity to the A2B activity, A2A/A2B)	IC50 (adenosine A2B receptor; cAMP) [nM]
N#Cc1cncc(CNc2nc(C(=O)N3CCCC3)c3sccc3n2)c1 [Example Z141, 5-(((4-(Pyrrolidine-1-carbonyl)thieno[3,2-d]pyrimidin-2-yl)amino)methyl)nicotinonitrile]	> 500	102	38.7	> 500	> 500	35.53	10 to 50					
C[C@H](Nc1nc(C(=O)NCCO)c2sccc2n1)c1cccnc1 [Example Z145, (S)—N-(2-Hydroxyethyl)-2-((1-(pyridin-3-yl)ethyl)amino)thieno[3,2-d]pyrimidine-4-carboxamide]		8.46	1.92	100 to 500			10 to 50					
CNc1cc2nc(N[C@@H](C)c3cccnc3)nc(C(=O)N3CCCC3)c2s1 [Example Z152, (S)-(6-(Methylamino)-2-((1-(pyridin-3-yl)ethyl)amino)thieno[3,2-d]pyrimidin-4-yl)(pyrrolidin-1-yl)methanone]	> 500	38.3	12.3	100 to 500	50 to 100	53.70	< 10					
C[C@H](Nc1nc(C(=O)NC2CC(O)C2)c2sccc2n1)c1ccccn1 (stereo partly drawn) [Example Z158, N-((1s,3R)-3-Hydroxycyclobutyl)-2-(((S)-1-(pyridin-2-yl)ethyl)amino)thieno[3,2-d]pyrimidine-4-carboxamide]		22.6	20.6			9.39						
C[C@H](Nc1nc(C(=O)N2CC[C@H](O)C2)c2sccc2n1)c1cncc(F)c1 [Example Z165, (2-(((S)-1-(5-Fluoropyridin-3-yl)ethyl)amino)thieno[3,2-d]pyrimidin-4-yl)((S)-3-hydroxypyrrolidin-1-yl)methanone]	> 500	14.8	5.66	> 500	> 500	73.68	< 10					
C[C@H](Nc1nc(C(=O)N2CC[C@@H](O)C2)c2sccc2n1)c1cncc(F)c1 [Example Z166, (2-(((S)-1-(5-Fluoropyridin-3-yl)ethyl)amino)thieno[3,2-d]pyrimidin-4-yl)((R)-3-hydroxypyrrolidin-1-yl)methanone]	> 500	16.6	4.51	> 500	> 500	62.32	10 to 50					
O=C(NCCO)c1nc(NCc2cc(F)cc(F)c2)nc2ccsc12 [Example Z169, 2-((3,5-Difluorobenzyl)amino)-N-(2-hydroxyethyl)thieno[3,2-d]pyrimidine-4-carboxamide]	> 500	43.7	55.6	100 to 500	> 500	26.40	< 10					
O=C(NC1CC(O)C1)c1nc(NCc2cncc(F)c2)nc2ccsc12 (centres unmarked) [Example Z183, 2-(((5-Fluoropyridin-3-yl)methyl)amino)-N-((1s,3s)-3-hydroxycyclobutyl)thieno[3,2-d]pyrimidine-4-carboxamide]	> 500	23.7	24.9	100 to 500	> 500	37.09	< 10					
COC1CN(C(=O)c2nc(N[C@@H](C)c3cncc(F)c3)nc3ccsc23)C1 [Example Z185, (S)-(2-((1-(5-Fluoropyridin-3-yl)ethyl)amino)thieno[3,2-d]pyrimidin-4-yl)(3-methoxyazetidin-1-yl)methanone]	> 500	37	12	100 to 500	> 500	46.14	< 10					
CNc1cc2nc(N[C@@H](C)c3cccnc3)nc(C(=O)N3CC[C@H](O)C3)c2s1 [Example Z188, ((S)-3-Hydroxypyrrolidin-1-yl)(6-(methylamino)-2-(((S)-1-(pyridin-3-yl)ethyl)amino)thieno[3,2-d]pyrimidin-4-yl)methanone]	> 500	10	2.16	> 500	> 500	114.79	10 to 50					
C[C@H](O)CNC(=O)c1nc(N[C@@H](C)c2cncc(F)c2)nc2ccsc12 [Example Z191, 2-(((S)-1-(5-Fluoropyridin-3-yl)ethyl)amino)-N—((S)-2-hydroxypropyl)thieno[3,2-d]pyrimidine-4-carboxamide]	> 500	26.7	10.6	100 to 500	> 500	45.25	< 10					
CNc1cc2nc(N[C@@H](C)c3cncc(F)c3)nc(C(=O)N3CC[C@H](O)C3)c2s1 [Example Z197, (2-(((S)-1-(5-Fluoropyridin-3-yl)ethyl)amino)-6-(methylamino)thieno[3,2-d]pyrimidin-4-yl)((S)-3-hydroxypyrrolidin-1-yl)methanone]	> 500	16.2	3.34	> 500	> 500	298.42	< 10					
Cc1cc2nc(N[C@@H](C)c3cncc(F)c3)nc(C(=O)N3CC(NC(=O)[C@H]4CCOC4)C3)c2s1 [Example Z599, (S)—N-(1-(2-(((S)-1-(5-Fluoropyridin-3-yl)ethyl)amino)-6-methylthieno[3,2-d]pyrimidine-4-carbonyl)azetidin-3-yl)tetrahydrofuran-3-carboxamide]								> 500	100 to 500	10 to 50	1.22	10 to 50

Results, then the compound that gave them:

IC50 (adenosine A1 receptor [1]) [nM]	hepatocyte CLint [2] [µL/min/1e6 cells]	hepatocyte CLint [3] [µL/min/1e6 cells]	IC50 (adenosine A2A receptor) [nM]	IC50 (adenosine A3 receptor [4]) [nM]	Ratio (adenosine A2B receptor; [7])	IC50 (adenosine A2B receptor) [nM]	IC50 (adenosine A1 receptor [5]) [nM]	IC50 (adenosine A3 receptor [6]) [nM]	IC50 (adenosine A2A receptor; cAMP) [nM]	Ratio (adenosine A2B receptor; A2A activity to the A2B activity, A2A/A2B)	IC50 (adenosine A2B receptor; cAMP) [nM]	Compound
> 500	43	9.59	100 to 500	50 to 100	22.27	10 to 50						C[C@H](Nc1nc(C(=O)N2CC[C@H](O)C2)c2sccc2n1)c1cccc(F)c1 [Example Z129, (2-(((S)-1-(3-Fluorophenyl)ethyl)amino)thieno[3,2-d]pyrimidin-4-yl)((S)-3-hydroxypyrrolidin-1-yl)methanone]
> 500	66.8	74.8	100 to 500	10 to 50	19.91	10 to 50						COc1cc(F)cc(CNc2nc(C(=O)N3CC(O)C3)c3sccc3n2)c1 [Example Z137, (2-((3-Fluoro-5-methoxybenzyl)amino)thieno[3,2-d]pyrimidin-4-yl)(3-hydroxyazetidin-1-yl)methanone]
> 500	10.3	1.14	100 to 500	> 500	14.05	10 to 50						C[C@H](Nc1nc(C(=O)N2CC(O)C2)c2sccc2n1)c1cccnc1 [Example Z138, (S)-(3-Hydroxyazetidin-1-yl)(2-((1-(pyridin-3-yl)ethyl)amino)thieno[3,2-d]pyrimidin-4-yl)methanone]
> 500	24.2	7.67	50 to 100	> 500	8.08	< 10						COC1CN(C(=O)c2nc(N[C@@H](C)c3cccnc3)nc3ccsc23)C1 [Example Z139, (S)-(3-Methoxyazetidin-1-yl)(2-((1-(pyridin-3-yl)ethyl)amino)thieno[3,2-d]pyrimidin-4-yl)methanone]
> 500	68.3	43.5	10 to 50	100 to 500	2.82	< 10						C[C@H](Nc1nc(C(=O)NC2CCC2)c2sccc2n1)c1ccccn1 [Example Z147, (S)—N-Cyclobutyl-2-((1-(pyridin-2-yl)ethyl)amino)thieno[3,2-d]pyrimidine-4-carboxamide]
> 500	34	13.5	50 to 100	> 500	49.96	< 10						C[C@H](Nc1nc(C(=O)N2CCC2)c2sccc2n1)c1cncc(F)c1 [Example Z164, (S)-Azetidin-1-yl(2-((1-(5-fluoropyridin-3-yl)ethyl)amino)thieno[3,2-d]pyrimidin-4-yl)methanone]
100 to 500	91.4	51.4	50 to 100	> 500	22.94	< 10						O=C(NC1CCC1)c1nc(NCc2cncc(F)c2)nc2ccsc12 [Example Z171, N-Cyclobutyl-2-(((5-fluoropyridin-3-yl)methyl)amino)thieno[3,2-d]pyrimidine-4-carboxamide]
> 500	23.7	10.1	50 to 100	> 500	34.96	< 10						C[C@H](Nc1nc(C(=O)NC[C@@H](C)O)c2sccc2n1)c1cncc(F)c1 [Example Z190, 2-(((S)-1-(5-Fluoropyridin-3-yl)ethyl)amino)-N—((R)-2-hydroxypropyl)thieno[3,2-d]pyrimidine-4-carboxamide]
50 to 100			10 to 50	> 500	6.93	< 10						C[C@H](Nc1nc(C(=O)NC2CC2)c2sccc2n1)c1ccccn1 [Example Z192, (S)—N-Cyclopropyl-2-((1-(pyridin-2-yl)ethyl)amino)thieno[3,2-d]pyrimidine-4-carboxamide]
